Consider six compounds from ChEMBL document CHEMBL1201862, “PubChem BioAssay data set” (2004).

Where a name gives a salt, the structure may show the parent alone. Calls of active or inactive are those of the source.

One assay addresses T1, Bcl-2-related protein A1 (Mus musculus, UniProt Q07440).
T1 sequence (Q07440 whole entry): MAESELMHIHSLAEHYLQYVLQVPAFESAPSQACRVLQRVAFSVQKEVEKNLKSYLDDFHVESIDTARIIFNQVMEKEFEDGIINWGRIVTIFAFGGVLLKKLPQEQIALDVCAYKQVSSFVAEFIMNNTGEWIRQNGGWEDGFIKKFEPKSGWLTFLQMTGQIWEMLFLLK
Type of assay: functional.

For assay [1], the target named is T2, Ubiquitin-conjugating enzyme E2 N (Homo sapiens, UniProt P61088).
T2 sequence (P61088 whole entry): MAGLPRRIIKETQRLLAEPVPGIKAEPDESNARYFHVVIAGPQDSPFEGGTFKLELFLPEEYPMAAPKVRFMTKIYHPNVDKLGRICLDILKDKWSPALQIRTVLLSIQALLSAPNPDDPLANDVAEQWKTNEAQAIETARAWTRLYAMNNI
Type of assay: functional.

The target in assay [2] is T2, Ubiquitin-conjugating enzyme E2 N. Type of assay: functional. The source holds these as a separate data set.
In assay [3] the target is T3, Insulin-degrading enzyme (Homo sapiens, UniProt P14735).
T3 sequence (P14735 whole entry): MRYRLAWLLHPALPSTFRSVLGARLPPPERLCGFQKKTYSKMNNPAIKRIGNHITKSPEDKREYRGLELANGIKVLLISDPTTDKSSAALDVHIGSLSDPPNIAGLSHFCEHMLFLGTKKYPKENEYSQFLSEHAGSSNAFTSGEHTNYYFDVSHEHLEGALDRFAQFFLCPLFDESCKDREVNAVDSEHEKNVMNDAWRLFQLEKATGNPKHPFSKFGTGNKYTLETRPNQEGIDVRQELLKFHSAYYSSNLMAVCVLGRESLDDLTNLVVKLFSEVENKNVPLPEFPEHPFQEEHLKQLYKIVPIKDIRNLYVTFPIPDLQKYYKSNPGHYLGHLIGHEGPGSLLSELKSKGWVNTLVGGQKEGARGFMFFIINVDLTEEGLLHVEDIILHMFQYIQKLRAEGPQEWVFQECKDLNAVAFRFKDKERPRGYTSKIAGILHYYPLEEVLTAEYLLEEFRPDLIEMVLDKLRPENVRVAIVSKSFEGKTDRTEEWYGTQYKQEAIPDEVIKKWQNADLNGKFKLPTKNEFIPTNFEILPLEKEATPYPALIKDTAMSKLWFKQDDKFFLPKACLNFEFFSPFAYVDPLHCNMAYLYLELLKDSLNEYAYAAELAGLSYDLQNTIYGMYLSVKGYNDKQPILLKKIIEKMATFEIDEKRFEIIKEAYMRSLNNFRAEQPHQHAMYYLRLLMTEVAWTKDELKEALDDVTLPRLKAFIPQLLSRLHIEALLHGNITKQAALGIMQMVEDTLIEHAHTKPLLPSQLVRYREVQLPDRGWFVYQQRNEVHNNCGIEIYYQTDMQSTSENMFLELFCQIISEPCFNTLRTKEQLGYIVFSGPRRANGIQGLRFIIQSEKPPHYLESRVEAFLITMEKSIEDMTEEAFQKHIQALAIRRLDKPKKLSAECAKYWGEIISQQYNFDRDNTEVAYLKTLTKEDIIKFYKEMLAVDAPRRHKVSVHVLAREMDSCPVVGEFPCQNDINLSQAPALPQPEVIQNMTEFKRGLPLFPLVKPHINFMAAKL
The experiment in a line: recombinant IDE activation, cell-free – biochemical, fluorescence polarization, counter-screen for IDE activator project, dose response (AID 588681).

The target of assay [4] is T4, Apoptotic protease-activating factor 1 (Homo sapiens, UniProt O14727).
T4 sequence (O14727 whole entry): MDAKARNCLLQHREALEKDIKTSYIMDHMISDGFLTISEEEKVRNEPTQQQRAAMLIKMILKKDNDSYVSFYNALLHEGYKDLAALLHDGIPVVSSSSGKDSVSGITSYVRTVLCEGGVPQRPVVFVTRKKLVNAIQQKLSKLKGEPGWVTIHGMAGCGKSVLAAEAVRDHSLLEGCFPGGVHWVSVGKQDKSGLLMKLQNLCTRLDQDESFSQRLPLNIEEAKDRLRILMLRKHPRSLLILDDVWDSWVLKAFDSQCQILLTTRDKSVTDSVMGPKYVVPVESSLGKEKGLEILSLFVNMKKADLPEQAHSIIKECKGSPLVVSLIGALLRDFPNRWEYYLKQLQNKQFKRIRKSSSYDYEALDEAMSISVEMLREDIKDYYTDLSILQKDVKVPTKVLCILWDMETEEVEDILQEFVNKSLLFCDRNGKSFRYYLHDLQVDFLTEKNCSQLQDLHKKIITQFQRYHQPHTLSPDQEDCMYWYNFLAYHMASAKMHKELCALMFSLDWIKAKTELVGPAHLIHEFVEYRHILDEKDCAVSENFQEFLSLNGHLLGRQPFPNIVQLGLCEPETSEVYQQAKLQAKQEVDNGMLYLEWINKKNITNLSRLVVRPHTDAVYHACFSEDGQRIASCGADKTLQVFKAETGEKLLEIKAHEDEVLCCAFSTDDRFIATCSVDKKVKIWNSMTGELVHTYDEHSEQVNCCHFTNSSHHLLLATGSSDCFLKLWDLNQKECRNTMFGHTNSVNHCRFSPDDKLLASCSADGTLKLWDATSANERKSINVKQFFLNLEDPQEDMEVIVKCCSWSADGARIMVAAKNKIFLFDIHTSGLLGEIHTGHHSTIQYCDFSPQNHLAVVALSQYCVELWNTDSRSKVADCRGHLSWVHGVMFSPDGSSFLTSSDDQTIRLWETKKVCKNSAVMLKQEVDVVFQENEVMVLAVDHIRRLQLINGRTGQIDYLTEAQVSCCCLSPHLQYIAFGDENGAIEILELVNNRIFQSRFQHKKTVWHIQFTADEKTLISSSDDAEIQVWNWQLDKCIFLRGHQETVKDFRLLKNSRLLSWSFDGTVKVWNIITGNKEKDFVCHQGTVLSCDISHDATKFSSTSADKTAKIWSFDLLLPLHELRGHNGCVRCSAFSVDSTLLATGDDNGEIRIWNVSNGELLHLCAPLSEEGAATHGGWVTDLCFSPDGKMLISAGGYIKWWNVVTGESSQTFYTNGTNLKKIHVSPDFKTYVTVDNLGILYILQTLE
It is filed as functional.

The target in assay [5] is T3, Insulin-degrading enzyme. The assay is described as follows: cellular IDE activation of Abeta substrate cleavage – fluorescence polarization, HEK cells, dose response (AID 588439). It is filed as functional, cell-based. Background: Polarisation of emitted light reports the rotation of a fluorescent probe.
The test system of assay [6] is HEK293. The experiment in a line: membrane integrity loss in HEK cells – cell-based, fluorescence, cytotoxicity control for IDE activator project, dose response (AID 588440).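 Note: cytotoxicity by LDH release measuring loss of membrane integrity.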 Type of assay: functional. Conditions: Homo sapiens.
Assay [7] has as its system HEK293. The assay is described as follows: optical interference in Abeta FP readout, dose response, artefact control for IDE activator project, biochemical, fluorescence polarization (AID 588442). Conditions: Homo sapiens. Type of assay: functional, cell-based.
For a further assay, the target named is Melanocortin receptor 4 (Homo sapiens, UniProt P32245). The experiment in a line: inhibitors of MC4R cAMP signaling – cell-based, TR-FRET, biased antagonists, dose response (AID 602298).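 Note: antagonist potency against agonist-stimulated cAMP production.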 Type of assay: functional. On the technique in general: TR-FRET usually uses a lanthanide donor and a delayed reading to cut background.
Assay [8] in a line: cAMP pathway inhibition in counterscreen cell line – TR-FRET cAMP detection, counter-screen for MC4R biased antagonist project, dose response (AID 602305).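 Note: U2OS cells stimulated with forskolin near its EC80 as the cAMP inducer; potency is for inhibition of forskolin-stimulated cAMP signaling.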 Type of assay: functional, cell-based. (In general: A counterscreen serves to expose hits that act by an unwanted route or on another target.)
A short description of assay [9]: blockers of CAL PDZ–TMR peptide complex – biochemical, fluorescence polarization, untagged CAL PDZ, cherry-pick, set 2, dose response (AID 602254). Type of assay: functional.
The next assay concerns the target SUMO-activating enzyme (Homo sapiens, UniProt Q9UBT2). The experiment in a line: blockers of SAE1/SAE2–UBC9 SUMO transfer – biochemical, HTRF, uHTS, primary screen (AID 2006). It is filed as protein-complex assay.
For assay [10], the target named is 26S proteasome non-ATPase regulatory subunit 14 (Homo sapiens, UniProt O00487). The experiment in a line: inhibition of proteasome subunit RPN11 – biochemical, fluorescence polarization, uHTS hits, confirmation (AID 602368). Type of assay: functional.
Assay [11] has as its target 72 kDa type IV collagenase (Homo sapiens, UniProt P08253). The assay is described as follows: Dose Response validation of uHTS RPN11 inhibitor hits using a MMP-2 Fluorescence assay. Type of assay: functional.
The target of another assay is Prothrombin (Bos taurus, UniProt P00735). The assay is described as follows: thrombin protease inhibitors – biochemical, fluorescence polarization, uHTS hits, dose response (AID 602369). It is filed as functional.
Assay [12] is described as follows: Luminescence Cell-Based Dose Retest to Confirm Inhibitors of Cancer Stem Cells. [Related pubchem assays (depositor defined):AID2717, AID2721]. Type of assay: functional. The note with it: Homo sapiens.
Assay [13] deals with Neurotensin receptor type 1 (Homo sapiens, UniProt P30989). It is filed as functional.
Assay [14] in a line: HEK-293T cell viability reduction – luminescence, B-cell screen hits, cytotoxicity control for BCR NF-kB inhibitor project, dose response (AID 489021).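 Note: HEK-293T cells carrying an NF-kB luciferase reporter; cells exposed to compound for about 14 hours before viability readout.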 It is filed as functional, cell-based.
The test system of assay [15] is HEK293. The experiment in a line: EBV LMP1 TES2 canonical NF-kB signalling blockers – cell-based, HEK293, luciferase, cherry-pick, dose response (AID 588343). It is filed as functional. Conditions: Homo sapiens.
In a further assay the test system is INS1. The assay is described as follows: INS-1E survival protection against cytokine death – cell-based, luminescence, retest, dose response (AID 449756).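 Note: cell death triggered by IL-1 beta plus TNF-alpha plus IFN-gamma mixture; protective hits raise ATP signal compared with cytokine alone wells.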 Type of assay: functional. The note with it: Rattus norvegicus.
Another assay deals with Cytochrome P450 2D6 (Homo sapiens, UniProt P10635).
A further assay addresses T5, Cytochrome P450 1A2 (Homo sapiens, UniProt P05177).
T5 sequence (P05177 whole entry): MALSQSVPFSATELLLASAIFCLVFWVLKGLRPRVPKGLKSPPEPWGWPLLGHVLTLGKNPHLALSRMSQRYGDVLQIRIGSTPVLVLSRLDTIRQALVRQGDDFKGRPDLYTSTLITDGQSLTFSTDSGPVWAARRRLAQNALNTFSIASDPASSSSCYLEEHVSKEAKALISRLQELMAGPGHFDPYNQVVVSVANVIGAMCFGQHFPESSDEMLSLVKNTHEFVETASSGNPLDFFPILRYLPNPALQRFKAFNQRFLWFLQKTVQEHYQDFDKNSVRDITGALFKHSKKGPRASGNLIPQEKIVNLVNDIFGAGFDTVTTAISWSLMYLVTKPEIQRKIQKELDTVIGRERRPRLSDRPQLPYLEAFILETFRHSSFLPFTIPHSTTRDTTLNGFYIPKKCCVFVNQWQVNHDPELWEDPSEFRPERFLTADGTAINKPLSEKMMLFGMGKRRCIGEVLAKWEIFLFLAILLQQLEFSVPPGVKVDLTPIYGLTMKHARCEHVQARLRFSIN

72 kDa type IV collagenase, sequence (P08253 whole entry): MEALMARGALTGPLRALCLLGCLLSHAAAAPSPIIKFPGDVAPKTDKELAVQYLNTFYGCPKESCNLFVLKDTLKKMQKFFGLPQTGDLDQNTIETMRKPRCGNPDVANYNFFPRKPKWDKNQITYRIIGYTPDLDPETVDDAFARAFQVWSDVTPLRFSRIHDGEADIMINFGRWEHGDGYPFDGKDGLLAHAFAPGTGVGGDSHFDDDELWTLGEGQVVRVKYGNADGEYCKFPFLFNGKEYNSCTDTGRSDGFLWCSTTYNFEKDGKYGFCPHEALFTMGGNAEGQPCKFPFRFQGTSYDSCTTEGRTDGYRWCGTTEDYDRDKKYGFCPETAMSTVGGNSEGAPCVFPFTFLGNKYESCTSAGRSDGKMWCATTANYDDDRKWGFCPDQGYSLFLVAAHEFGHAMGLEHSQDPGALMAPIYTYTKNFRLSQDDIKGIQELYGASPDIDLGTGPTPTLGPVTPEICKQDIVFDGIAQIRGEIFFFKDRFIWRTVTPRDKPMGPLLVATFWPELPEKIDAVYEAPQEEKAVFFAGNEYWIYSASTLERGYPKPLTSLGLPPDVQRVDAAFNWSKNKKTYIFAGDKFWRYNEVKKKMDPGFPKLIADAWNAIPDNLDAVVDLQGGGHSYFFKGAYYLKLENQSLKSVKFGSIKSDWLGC
Melanocortin receptor 4, sequence (P32245 whole entry): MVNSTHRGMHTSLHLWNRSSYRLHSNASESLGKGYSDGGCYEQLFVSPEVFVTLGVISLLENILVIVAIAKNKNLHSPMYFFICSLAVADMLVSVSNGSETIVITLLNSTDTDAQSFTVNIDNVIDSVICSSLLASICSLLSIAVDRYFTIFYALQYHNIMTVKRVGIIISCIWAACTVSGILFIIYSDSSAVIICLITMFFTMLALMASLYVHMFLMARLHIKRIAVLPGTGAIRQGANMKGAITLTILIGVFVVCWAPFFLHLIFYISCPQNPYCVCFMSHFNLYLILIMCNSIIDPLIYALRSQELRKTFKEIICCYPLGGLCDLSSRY
26S proteasome non-ATPase regulatory subunit 14, sequence (O00487 whole entry): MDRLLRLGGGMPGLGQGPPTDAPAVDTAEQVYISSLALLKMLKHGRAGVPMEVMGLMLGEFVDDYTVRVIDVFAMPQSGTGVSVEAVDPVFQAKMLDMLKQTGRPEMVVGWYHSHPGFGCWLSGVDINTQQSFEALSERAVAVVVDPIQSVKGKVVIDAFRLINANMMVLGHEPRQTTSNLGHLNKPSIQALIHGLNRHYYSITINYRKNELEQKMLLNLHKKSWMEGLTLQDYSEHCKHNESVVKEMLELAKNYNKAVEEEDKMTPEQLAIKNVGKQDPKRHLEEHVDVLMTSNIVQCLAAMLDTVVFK
SUMO-activating enzyme, sequence (Q9UBE0 whole entry): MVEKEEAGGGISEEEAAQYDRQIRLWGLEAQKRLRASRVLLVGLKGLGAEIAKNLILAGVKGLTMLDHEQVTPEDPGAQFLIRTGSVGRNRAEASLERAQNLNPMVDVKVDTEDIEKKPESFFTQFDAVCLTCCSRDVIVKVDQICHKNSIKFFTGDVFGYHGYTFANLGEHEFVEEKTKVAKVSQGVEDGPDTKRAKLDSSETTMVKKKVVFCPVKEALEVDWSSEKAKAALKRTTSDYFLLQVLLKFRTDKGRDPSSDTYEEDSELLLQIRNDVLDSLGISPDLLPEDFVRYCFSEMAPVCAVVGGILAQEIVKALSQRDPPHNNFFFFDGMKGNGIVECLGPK
SUMO-activating enzyme, sequence (Q9UBT2 whole entry): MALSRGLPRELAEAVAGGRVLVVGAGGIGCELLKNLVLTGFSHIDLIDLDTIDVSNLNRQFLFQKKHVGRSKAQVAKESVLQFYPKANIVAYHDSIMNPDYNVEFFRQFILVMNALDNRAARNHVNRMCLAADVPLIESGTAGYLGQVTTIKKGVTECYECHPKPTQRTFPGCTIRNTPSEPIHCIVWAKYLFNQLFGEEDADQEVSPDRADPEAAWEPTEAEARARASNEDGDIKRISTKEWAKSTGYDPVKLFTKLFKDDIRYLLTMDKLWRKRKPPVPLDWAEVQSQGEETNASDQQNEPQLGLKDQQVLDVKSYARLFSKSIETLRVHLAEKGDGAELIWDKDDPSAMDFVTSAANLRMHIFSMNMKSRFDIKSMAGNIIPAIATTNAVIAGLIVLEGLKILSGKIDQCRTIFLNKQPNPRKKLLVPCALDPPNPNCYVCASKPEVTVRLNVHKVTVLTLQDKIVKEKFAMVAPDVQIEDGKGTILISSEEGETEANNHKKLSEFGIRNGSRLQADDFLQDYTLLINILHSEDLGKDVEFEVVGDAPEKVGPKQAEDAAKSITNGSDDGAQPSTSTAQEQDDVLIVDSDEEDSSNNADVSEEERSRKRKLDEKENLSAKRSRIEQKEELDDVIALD
Cytochrome P450 2D6, sequence (P10635 whole entry): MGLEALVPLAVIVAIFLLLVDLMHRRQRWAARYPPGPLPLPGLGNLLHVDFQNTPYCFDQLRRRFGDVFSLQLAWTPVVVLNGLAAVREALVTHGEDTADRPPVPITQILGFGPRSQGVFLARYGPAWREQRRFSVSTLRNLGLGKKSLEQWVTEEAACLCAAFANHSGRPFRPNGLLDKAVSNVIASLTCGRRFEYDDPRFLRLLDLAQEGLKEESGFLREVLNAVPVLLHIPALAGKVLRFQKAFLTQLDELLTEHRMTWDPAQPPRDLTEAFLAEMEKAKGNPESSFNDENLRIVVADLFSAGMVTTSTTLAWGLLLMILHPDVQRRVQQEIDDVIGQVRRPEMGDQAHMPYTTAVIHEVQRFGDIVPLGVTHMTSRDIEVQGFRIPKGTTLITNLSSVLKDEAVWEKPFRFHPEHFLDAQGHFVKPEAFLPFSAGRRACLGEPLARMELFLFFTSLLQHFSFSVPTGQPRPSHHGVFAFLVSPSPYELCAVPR
Neurotensin receptor type 1, sequence (P30989 whole entry): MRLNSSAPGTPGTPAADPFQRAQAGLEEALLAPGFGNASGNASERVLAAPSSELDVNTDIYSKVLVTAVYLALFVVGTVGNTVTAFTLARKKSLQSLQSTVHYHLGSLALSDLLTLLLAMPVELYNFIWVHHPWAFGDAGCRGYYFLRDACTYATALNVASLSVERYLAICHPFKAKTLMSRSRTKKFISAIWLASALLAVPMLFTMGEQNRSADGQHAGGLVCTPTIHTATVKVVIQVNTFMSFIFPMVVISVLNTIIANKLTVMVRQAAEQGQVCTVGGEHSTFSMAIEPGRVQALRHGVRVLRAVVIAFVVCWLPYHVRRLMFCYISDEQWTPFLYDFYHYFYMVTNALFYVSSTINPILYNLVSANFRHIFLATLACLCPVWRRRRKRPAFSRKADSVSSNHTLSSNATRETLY

For orientation: IC50 means the midpoint of a concentration-inhibition curve. The term EC50 denotes the midpoint of the concentration-response curve. As for `C#CCOCCOCCOCCNc1nc(N2CCN(C(=O)CCCCCCCCCCNC(=O)Cn3cc(CCCCCN)nn3)CC2)nc(N2CCN(C(=O)CCCCCCCCCCNC(=O)[C@@H]([C@H](C)O)n3cc(C)nn3)CC2)n1`, the IC50 at Bcl-2-related protein A1 was > 20 µM (inactive); in assay [1] it was 10.7 µM (active); in [2], 6.62 µM (active); in [4], 36.7 µM (active); in the assay with HEK293 [6], 17.8 µM (inactive). Moreover, the EC50 on Insulin-degrading enzyme [3] was > 54.7 µM (inactive); on Insulin-degrading enzyme [5], > 6.07 µM (active); in the assay with HEK293 [7] it was > 54.7 µM (inactive).

For `CCOC(=O)c1c(NC(=O)C(C)OC(=O)C2=COCCO2)sc2c1CCCC2` (configuration not stated), the 50% inhibitory concentration (IC50) is > 7.18 µM (active) at Melanocortin receptor 4 and > 64.6 µM (inactive) in assay [8].

The AC50 is the concentration giving half of the maximal activity seen. In the case of `Cc1cc2ccccc2n1CCNCc1c(C(=O)N2CCOCC2)nc2ccccn12`, the half-maximal activity concentration (AC50) in [9] is 110 µM (active).

For `Sc1nnc(-c2cc(-c3ccccc3)[nH]n2)n1/N=C/c1ccc(Cl)c(Cl)c1`, the IC50 on SUMO-activating enzyme was 49.8 µM (active); in [10], 8.54 µM (active); in [11], > 100 µM (inactive); on Prothrombin, > 100 µM (inactive).

With `CNC(=O)c1cc(Oc2ccc(NC(=O)Nc3ccc(Cl)c(C(F)(F)F)c3)cc2)ccn1` [SORAFENIB TOSYLATE], the concentration at half-maximal activity (AC50) in [12] is 2.04 µM (active); in the assay on HEK293 [15] it was 1.6 µM (active); in the assay with INS1 it was 6.78 µM (active). Moreover, the concentration for a half-maximal effect (EC50) in [13] was 14.6 µM (active). Also, the figures for the IC50 (in [14]; at Melanocortin receptor 4; in assay [8]) were 70.6 µM (inactive), 4.48 µM (active) and > 64.6 µM (inactive), respectively.

As to `CN1/C(=C\C(=O)COC(=O)Cn2nnc(-c3ccccc3)n2)C(C)(C)c2ccccc21`, the half-inhibitory concentration (IC50) in assay [10] is 34.5 µM (active); in assay [11] it was > 100 µM (inactive); at Prothrombin, 51.6 µM (active). In addition, the half-maximal activity concentration (AC50) on Cytochrome P450 2D6 was 31.6 µM (inconclusive); at Cytochrome P450 1A2 it was 1.58 µM (inconclusive).
